Data reported in patent US11655235B2, “Pyrrolidine and piperidine compounds” (YUHAN CORPORATION, priority 2019, dated 2023).

How the values were obtained:
DPP4 = DPP4 (Homo sapiens, UniProt P27487); assay: DPP4 inhibition, fluorogenic substrate H-Gly-Pro-AMC; assay type: biochemical; parameters: purchased R&D Systems; settings: recombinant human DPP4
Recombinant human FAP = molecular target: T1, Recombinant human FAP (Homo sapiens, UniProt Q12884); assay: FAP FRET assay, FGF21-sequence FRET peptide substrate; assay type: biochemical; settings: FRET peptide with human FGF21 sequence, 6 μM, 37° C.
T1 construct: purchased R&D systems
T1 sequence (Q12884 1-760): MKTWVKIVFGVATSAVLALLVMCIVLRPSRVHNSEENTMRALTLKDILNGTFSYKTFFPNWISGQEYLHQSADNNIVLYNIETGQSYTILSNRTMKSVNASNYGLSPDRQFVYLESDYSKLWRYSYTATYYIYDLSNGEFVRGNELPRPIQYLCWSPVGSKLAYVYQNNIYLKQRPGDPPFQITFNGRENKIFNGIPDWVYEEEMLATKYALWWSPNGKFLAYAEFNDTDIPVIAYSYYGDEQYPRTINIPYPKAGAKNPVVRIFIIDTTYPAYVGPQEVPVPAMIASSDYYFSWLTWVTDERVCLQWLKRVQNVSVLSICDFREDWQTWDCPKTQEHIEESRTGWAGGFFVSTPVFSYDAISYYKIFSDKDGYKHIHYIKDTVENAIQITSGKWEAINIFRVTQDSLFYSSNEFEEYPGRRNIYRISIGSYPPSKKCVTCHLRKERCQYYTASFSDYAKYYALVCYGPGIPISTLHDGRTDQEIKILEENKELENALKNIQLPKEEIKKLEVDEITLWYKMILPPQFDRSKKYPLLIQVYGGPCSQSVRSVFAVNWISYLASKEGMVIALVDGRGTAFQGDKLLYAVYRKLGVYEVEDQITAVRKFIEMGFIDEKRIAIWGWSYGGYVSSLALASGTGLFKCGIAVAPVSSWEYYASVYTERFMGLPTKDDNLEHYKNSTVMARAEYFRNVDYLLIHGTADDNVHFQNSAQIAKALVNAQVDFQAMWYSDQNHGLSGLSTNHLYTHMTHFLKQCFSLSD
Description: The compounds according to the present technology were evaluated in terms of the inhibitory effect on the activity of dipeptidyl peptidases including FAP by using a substrate producing fluorescent substances upon enzymatic decomposition. The test was conducted at 25° C. to get a final reaction volume of 100 μL in a 96 black well plate. […] Briefly, the test compounds were dissolved in dimethyl sulfoxide (DMSO) at a concentration of 20 mM and then subjected to serial dilution, thereby creating an 8 point curve. As for the control group, a 6 point curve created by serial dilution of Talabostat in the same buffer solution was used. Fluorescence intensity was measured using a microplate reader (Flexstation3, Molecular Devices) under the wavelength condition exciting at 380 nm and reading the emission at 460 nm. The inhibitory effect of the test compounds was measured as a decrease (%) in the signal rate as compared to the control group without any inhibitor. Data was fixed to a logistic model with four variables and IC50 value was calculated using GraphPad Prism program. For the FAP FRET assay, recombinant human FAP (R&D systems) was diluted with 50 mM HEPES (pH 7.2) buffer comprising 150 mM of sodium chloride, 0.1 mg/ml of bovine serum albumin (BSA) and 1 mM EDTA to be 10 ng per final reaction. The test compounds were subjected to serial dilution in a buffer under the condition containing up to 0.1% of DMSO. FRET peptides containing human FGF21 sequence ([…]) conjugated with HyLite Fluor 488 and dark quencher QXL 520 (Anaspec) was used as a substrate. By dissolving in DMSO and then diluting in the same buffer, the substrate was added to be 6 μM per final reaction. All reactions of FRET assay was conducted at 37° C.

DPP4, sequence (P27487 whole entry): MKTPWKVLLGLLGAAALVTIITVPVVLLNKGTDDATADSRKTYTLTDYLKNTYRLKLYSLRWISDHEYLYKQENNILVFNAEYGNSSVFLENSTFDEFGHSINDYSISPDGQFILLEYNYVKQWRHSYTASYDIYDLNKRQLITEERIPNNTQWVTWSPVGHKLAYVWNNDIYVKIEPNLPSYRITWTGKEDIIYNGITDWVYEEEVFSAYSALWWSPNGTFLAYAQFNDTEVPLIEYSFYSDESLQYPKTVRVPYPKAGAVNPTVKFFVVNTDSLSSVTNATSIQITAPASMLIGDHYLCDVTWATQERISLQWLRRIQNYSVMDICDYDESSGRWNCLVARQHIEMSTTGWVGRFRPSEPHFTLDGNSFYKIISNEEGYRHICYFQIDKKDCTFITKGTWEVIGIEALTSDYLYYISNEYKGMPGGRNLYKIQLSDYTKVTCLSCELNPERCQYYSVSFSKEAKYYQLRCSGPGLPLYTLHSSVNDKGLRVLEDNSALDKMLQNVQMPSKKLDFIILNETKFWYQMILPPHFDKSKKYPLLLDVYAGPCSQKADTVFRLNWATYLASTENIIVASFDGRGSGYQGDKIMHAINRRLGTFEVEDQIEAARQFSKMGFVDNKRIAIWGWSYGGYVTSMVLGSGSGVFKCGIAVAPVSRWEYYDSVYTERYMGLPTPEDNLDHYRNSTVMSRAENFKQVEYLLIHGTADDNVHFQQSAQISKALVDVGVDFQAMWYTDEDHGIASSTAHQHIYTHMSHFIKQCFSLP

SMILES | IC50 (DPP4) | IC50 (Recombinant human FAP)
Cc1cc(NC2CCN(CC(=O)N3C[C@@H](F)C[C@H]3C#N)CC2)cc2cccnc12 [Example 374, (2S,4S)-4-fluoro-1-[2-[4-[(8-methyl-6-quinolyl)amino]-1-piperidyl]acetyl]pyrrolidine-2-carbonitrile] | 5670 nM | 31.6 nM
COc1ccnc2ccc(NC3CCN(CC(=O)N4C[C@@H](F)C[C@H]4C#N)CC3)cc12 [Example 382, (2S,4S)-4-fluoro-1-[2-[4-[(4-methoxy-6-quinolyl)amino]-1-piperidyl]acetyl]pyrrolidine-2-carbonitrile] | 3150 nM | 80 nM
N#C[C@@H]1C[C@H](F)CN1C(=O)CN1CCC(Nc2cc(=O)oc3ccccc23)CC1 [Example 379, (2S,4S)-4-fluoro-1-[2-[4-[(2-oxochromen-4-yl)amino]-1-piperidyl]acetyl]pyrrolidine-2-carbonitrile] | 3380 nM | 47.4 nM
N#C[C@@H]1C[C@H](F)CN1C(=O)CN1CCC(Nc2cccc3ncc(C(=O)Nc4ccccc4)cc23)CC1 [Example 388, 5-[[1-[2-oxo-2-[(2S,4S)-2-cyano-4-fluoro-pyrrolidin-1-yl]ethyl]-4-piperidyl]amino]-N-phenyl-quinoline-3-carboxamide] | 6890 nM | 70.2 nM
N#C[C@@H]1C[C@H](F)CN1C(=O)CN1CC[C@@H](Nc2ccnc3c(C(F)(F)F)cccc23)C1 [Example 196, (2S,4S)-4-fluoro-1-[2-[(3R)-3-[[8-(trifluoromethyl)-4-quinolyl]amino]pyrrolidin-1-yl]acetyl]pyrrolidine-2-carbonitrile] | 3840 nM | 7.4 nM
CN(Cc1ccccc1)C(=O)c1cnc2cccc(NC3CCN(CC(=O)N4C[C@@H](F)C[C@H]4C#N)CC3)c2c1 [Example 389, N-benzyl-N-methyl-5-[[1-[2-oxo-2-[(2S,4S)-2-cyano-4-fluoro-pyrrolidin-1-yl]ethyl]-4-piperidyl]amino]quinoline-3-carboxamide] | 3890 nM | 67.5 nM
N#C[C@@H]1CCCN1C(=O)CN1CCC(Nc2cc(=O)oc3ccccc23)CC1 [Example 378, (2S)-1-[2-[4-[(2-oxochromen-4-yl)amino]-1-piperidyl]acetyl]pyrrolidine-2-carbonitrile] | 24500 nM | 99.2 nM
CCN(c1cccc2ncccc12)C1CCN(CC(=O)N2C[C@@H](F)C[C@H]2C#N)CC1 [Example 305, (2S,4S)-1-[2-[4-[ethyl(5-quinolyl)amino]-1-piperidyl]acetyl]-4-fluoro-pyrrolidine-2-carbonitrile] | 2080 nM | 50.7 nM
Cc1ccc2c(OC3CCN(CC(=O)N4C[C@@H](F)C[C@H]4C#N)CC3)ccnc2c1 [Example 432, (2S,4S)-4-fluoro-1-[2-[4-[(7-methyl-4-quinolyl)oxy]-1-piperidyl]acetyl]pyrrolidine-2-carbonitrile] | 6580 nM | 19.8 nM
COc1ccc2cc(NC3CCN(CC(=O)N4C[C@@H](F)C[C@H]4C#N)CC3)cnc2c1 [Example 366, (2S,4S)-4-fluoro-1-[2-[4-[(7-methoxy-3-quinolyl)amino]-1-piperidyl]acetyl]pyrrolidine-2-carbonitrile] | ≥ 10000 nM | 36 nM
N#C[C@@H]1C[C@H](F)CN1C(=O)CN1CCC(Nc2ccnc3c(F)cccc23)CC1 [Example 345, (2S,4S)-4-fluoro-1-[2-[4-[(8-fluoro-4-quinolyl)amino]-1-piperidyl]acetyl]pyrrolidine-2-carbonitrile] | 6470 nM | 19.3 nM
COc1cccc2cc(N(C)C3CCN(CC(=O)N4C[C@@H](F)C[C@H]4C#N)CC3)cnc12 [Example 329, (2S,4S)-4-fluoro-1-[2-[4-[(8-methoxy-3-quinolyl)-methyl-amino]-1-piperidyl]acetyl]pyrrolidine-2-carbonitrile] | 26300 nM | 7.5 nM
N#C[C@@H]1C[C@H](F)CN1C(=O)CN1CCC(Nc2cnc3ccc(F)cc3c2)CC1 [Example 364, (2S,4S)-4-fluoro-1-[2-[4-[(6-fluoro-3-quinolyl)amino]-1-piperidyl]acetyl]pyrrolidine-2-carbonitrile] | 9130 nM | 17.2 nM
COc1ccc2nccc(N[C@@H]3CCN(CC(=O)N4CCC[C@H]4C#N)C3)c2c1 [Example 224, (2S)-1-[2-[(3R)-3-[(6-methoxy-4-quinolyl)amino]pyrrolidin-1-yl]acetyl]pyrrolidine-2-carbonitrile] | 54200 nM | 10 nM
COc1ccc2ncccc2c1N[C@@H]1CCN(CC(=O)N2C[C@@H](F)C[C@H]2C#N)C1 [Example 176, (2S,4S)-4-fluoro-1-[2-[(3R)-3-[(6-methoxy-5-quinolyl)amino]pyrrolidin-1-yl]acetyl]pyrrolidine-2-carbonitrile] | 1510 nM | 22.2 nM
N#C[C@@H]1C[C@H](F)CN1C(=O)CN1CCC(Nc2cnc3nc(Cl)ccc3c2)CC1 [Example 369, (2S,4S)-1-[2-[4-[(7-chloro-1,8-naphthyridin-3-yl)amino]-1-piperidyl]acetyl]-4-fluoro-pyrrolidine-2-carbonitrile] | ≥ 10000 nM | 62.1 nM
N#C[C@@H]1CCCN1C(=O)CN1CCC(Oc2ccnc3cc(Cl)ccc23)CC1 [Example 428, (2S)-1-[2-[4-[(7-chloro-4-quinolyl)oxy]-1-piperidyl]acetyl]pyrrolidine-2-carbonitrile] | 32600 nM | 17.3 nM
CCOc1ccc(NC2CCN(CC(=O)N3CCC[C@H]3C#N)CC2)c2cccnc12 [Example 370, (2S)-1-[2-[4-[(8-ethoxy-5-quinolyl)amino]-1-piperidyl]acetyl]pyrrolidine-2-carbonitrile] | 36800 nM | 11 nM
N#C[C@@H]1C[C@H](F)CN1C(=O)CN1CC[C@@H](Nc2ccnc3ccc(Cl)cc23)C1 [Example 192, (2S,4S)-4-fluoro-1-[2-[(3R)-3-[(6-chloro-4-quinolyl)amino]pyrrolidin-1-yl]acetyl]pyrrolidine-2-carbonitrile] | 5560 nM | 15.6 nM
N#C[C@@H]1C[C@H](F)CN1C(=O)CN1CC[C@H](Nc2cnc3ncccc3c2)C1 [Example 272, (2S,4S)-4-fluoro-1-[2-[(3S)-3-(1,8-naphthyridin-3-ylamino)pyrrolidin-1-yl]acetyl]pyrrolidine-2-carbonitrile] | 2800 nM | 16.3 nM
CN(Cc1ccccc1)C(=O)c1ccc(NC2CCN(CC(=O)N3C[C@@H](F)C[C@H]3C#N)CC2)c2cccnc12 [Example 393, N-benzyl-N-methyl-5-[[1-[2-oxo-2-[(2S,4S)-2-cyano-4-fluoro-pyrrolidin-1-yl]ethyl]-4-piperidyl]amino]quinoline-8-carboxamide] | 3310 nM | 43.8 nM
COc1cccc2cc(N(C)C3CCN(CC(=O)N4CCC[C@H]4C#N)CC3)cnc12 [Example 325, (2S)-1-[2-[4-[methyl-(8-methoxy-3-quinolyl)amino]-1-piperidyl]acetyl]pyrrolidine-2-carbonitrile] | ≥ 100000 nM | 8.9 nM
N#C[C@@H]1CCCN1C(=O)CN1CC[C@@H](Nc2ccnc3c(F)cccc23)C1 [Example 227, (2S)-1-[2-[(3R)-3-[(8-fluoro-4-quinolyl)amino]pyrrolidin-1-yl]acetyl]pyrrolidine-2-carbonitrile] | 31700 nM | 7.2 nM
N#C[C@@H]1CCCN1C(=O)CN1CC[C@@H](Nc2ccc3nc(C(F)(F)F)ccc3c2)C1 [Example 217, (2S)-1-[2-[(3R)-3-[[2-(trifluoromethyl)-6-quinolyl]amino]pyrrolidin-1-yl]acetyl]pyrrolidine-2-carbonitrile] | 29000 nM | 8.8 nM
